Experimental data from patent US8273760B2, “Indolo[3,2-c]quinoline compounds” (Kaohsiung Medical University, priority 2008, dated 2012).
Counter-ions that a name gives are not always drawn.

Key:
[1] = test system: SR; test: In vitro anticancer assay (NCI panel), SR; type: cell-based; conditions: Homo sapiens, leukemia
Method: (§1) Selected compounds were evaluated in vitro against the NCI's full panel of 60 cancer cell lines derived from nine cancer cell types, including: leukemia (CCRF-CEM, HL-60 (TB), K-562, MOLT-4, RPMI-8226, and SR); non-small cell lung cancer (A549/ATCC, EKVX, HOP-62, HOP-92, NCI-H226, NCI-H23, NCI-H322M, and NCI-H522); colon cancer (COLO 205, HCC-2998, HCT-116, HCT-15, HT29, KM12, and SW-620); CNS cancer (SF-268, SF-295, SF-539, SNB-19, SNB-75, and U251); melanoma (LOX IMVI, MALME-3M, M14, SK-MEL-2, SK-MEL-28, SK-MEL-5, UACC-62, and UACC-257); ovarian cancer (IGROV1, OVCAR-3, OVCAR-4, OVCAR-5, OVCAR-8, and SK-OV-3); renal cancer (786-0, A498, ACHN, CAKI-1, RXF 393, SN12C, TK-10, and UO-31); prostate cancer (PC-3 and DU-145); and breast cancer (MCF7, MCF7/ADR-RES, MDA-MB-231/ATCC, HS 578T, MDA-MB-435, MDA-N, and T-47D). For each compound, dose-response curves for each cell line were measured with five different drug concentrations, and the concentration causing 50% cell growth inhibition (GI50) compared with the control was calculated. The mean GI50 values of each tested compound for all the 60 tumor cell lines were also calculated.

[2] = test system: SN12C; test: In vitro anticancer assay (NCI panel), SN12C; type: cell-based; conditions: Homo sapiens, renal cancer
Method: as §1

[3] = test system: LOX IMVI; test: In vitro anticancer assay (NCI panel), LOX IMVI; type: cell-based; conditions: Homo sapiens, melanoma
Method: as §1

[4] = test system: HOP-62; test: In vitro anticancer assay (NCI panel), HOP-62; type: cell-based; conditions: Homo sapiens; HOP-62, non-small cell lung cancer
Method: as §1

[5] = test system: HCT-116; test: In vitro anticancer assay (NCI panel), HCT-116; type: cell-based; conditions: Homo sapiens; HCT-116, colon cancer
Method: as §1

[6] = test system: DU-145; test: In vitro anticancer assay (NCI panel), DU-145; type: cell-based; conditions: Homo sapiens; DU-145, prostate cancer
Method: as §1

[7] = test system: MDA-MB-231/ATCC; test: In vitro anticancer assay (NCI panel), MDA-MB-231/ATCC; type: cell-based; conditions: Homo sapiens, breast cancer
Method: as §1

[8] = test system: ACHN; test: In vitro anticancer assay (NCI panel), ACHN; type: cell-based; conditions: Homo sapiens, renal cancer
Method: as §1

[9] = test system: OVCAR-3; test: In vitro anticancer assay (NCI panel), OVCAR-3; type: cell-based; conditions: Homo sapiens; OVCAR-3, ovarian cancer
Method: as §1

[10] = test system: SK-MEL-2; test: In vitro anticancer assay (NCI panel), SK-MEL-2; type: cell-based; conditions: Homo sapiens; SK-MEL-2, melanoma
Method: as §1

[11] = test system: PC-3; test: In vitro anticancer assay (NCI panel), PC-3; type: cell-based; conditions: Homo sapiens; PC-3, prostate cancer
Method: as §1

[12] = test system: SNB-19; test: In vitro anticancer assay (NCI panel), SNB-19; type: cell-based; conditions: Homo sapiens; SNB-19, CNS cancer
Method: as §1

[13] = test system: HT29; test: In vitro anticancer assay (NCI panel), HT29; type: cell-based; conditions: Homo sapiens, HT-29; HT29, colon cancer
Method: as §1

[14] = test system: MCF7; test: In vitro anticancer assay (NCI panel), MCF7; type: cell-based; conditions: Homo sapiens; MCF7, breast cancer
Method: as §1

[15] = test system: NCI's full panel of 60 cancer cell lines; test: In vitro anticancer assay, all cell lines of the NCI panel; type: cell-based, human; conditions: Homo sapiens, mean values of over all cell lines tested; read-out: MG MID (mean GI50)
Method: as §1

[16] = test system: MDA-MB-435; test: In vitro anticancer assay (NCI panel), MDA-MB-435; type: cell-based; conditions: Homo sapiens; MDA-MB-435, breast cancer
Method: as §1

[17] = test system: OVCAR-5; test: In vitro anticancer assay (NCI panel), OVCAR-5; type: cell-based; conditions: Homo sapiens; OVCAR-5, ovarian cancer
Method: as §1

[18] = test system: K-562; test: In vitro anticancer assay (NCI panel), K-562; type: cell-based; conditions: Homo sapiens, K562; K-562, leukemia
Method: as §1

[19] = test system: A549/ATCC; test: In vitro anticancer assay (NCI panel), A549/ATCC; type: cell-based; conditions: Homo sapiens, non-small cell lung cancer
Method: as §1

[20] = test system: UACC-62; test: In vitro anticancer assay (NCI panel), UACC-62; type: cell-based; conditions: Homo sapiens; UACC-62, melanoma
Method: as §1

[21] = test system: OVCAR-8; test: In vitro anticancer assay (NCI panel), OVCAR-8; type: cell-based; conditions: Homo sapiens; OVCAR-8, ovarian cancer
Method: as §1

[22] = test system: SF-295; test: In vitro anticancer assay (NCI panel), SF-295; type: cell-based; conditions: Homo sapiens; SF-295, CNS cancer
Method: as §1

[23] = test system: HL-60 (TB); test: In vitro anticancer assay (NCI 60 cell line panel), HL-60 (TB); type: cell-based; conditions: Homo sapiens, leukemia
Method: as §1

[24] = target: telomerase (Homo sapiens, UniProt O14746); test: Telomeric Repeat Amplification Protocol (TRAP) assay, cell-free; conditions: 0.5 μg total cell extract from H1299 human lung cancer cells, FIG. 1
[25] = test system: SF-268; test: In vitro anticancer assay (NCI panel), SF-268; type: cell-based; conditions: Homo sapiens; SF-268, CNS cancer
Method: as §1

[26] = test system: COLO 205; test: In vitro anticancer assay (NCI panel), COLO 205; type: cell-based; conditions: Homo sapiens; COLO 205, colon cancer
Method: as §1

[27] = test system: 786-0; test: In vitro anticancer assay (NCI panel), 786-0; type: cell-based; conditions: Homo sapiens; 786-0, renal cancer
Method: as §1

[28] = test system: NCI-H460; test: In vitro anticancer assay (NCI panel), NCI-H460; type: cell-based; conditions: Homo sapiens; NCI-H460, non-small cell lung cancer
Method: as §1

Chain of telomerase (O14746 whole entry): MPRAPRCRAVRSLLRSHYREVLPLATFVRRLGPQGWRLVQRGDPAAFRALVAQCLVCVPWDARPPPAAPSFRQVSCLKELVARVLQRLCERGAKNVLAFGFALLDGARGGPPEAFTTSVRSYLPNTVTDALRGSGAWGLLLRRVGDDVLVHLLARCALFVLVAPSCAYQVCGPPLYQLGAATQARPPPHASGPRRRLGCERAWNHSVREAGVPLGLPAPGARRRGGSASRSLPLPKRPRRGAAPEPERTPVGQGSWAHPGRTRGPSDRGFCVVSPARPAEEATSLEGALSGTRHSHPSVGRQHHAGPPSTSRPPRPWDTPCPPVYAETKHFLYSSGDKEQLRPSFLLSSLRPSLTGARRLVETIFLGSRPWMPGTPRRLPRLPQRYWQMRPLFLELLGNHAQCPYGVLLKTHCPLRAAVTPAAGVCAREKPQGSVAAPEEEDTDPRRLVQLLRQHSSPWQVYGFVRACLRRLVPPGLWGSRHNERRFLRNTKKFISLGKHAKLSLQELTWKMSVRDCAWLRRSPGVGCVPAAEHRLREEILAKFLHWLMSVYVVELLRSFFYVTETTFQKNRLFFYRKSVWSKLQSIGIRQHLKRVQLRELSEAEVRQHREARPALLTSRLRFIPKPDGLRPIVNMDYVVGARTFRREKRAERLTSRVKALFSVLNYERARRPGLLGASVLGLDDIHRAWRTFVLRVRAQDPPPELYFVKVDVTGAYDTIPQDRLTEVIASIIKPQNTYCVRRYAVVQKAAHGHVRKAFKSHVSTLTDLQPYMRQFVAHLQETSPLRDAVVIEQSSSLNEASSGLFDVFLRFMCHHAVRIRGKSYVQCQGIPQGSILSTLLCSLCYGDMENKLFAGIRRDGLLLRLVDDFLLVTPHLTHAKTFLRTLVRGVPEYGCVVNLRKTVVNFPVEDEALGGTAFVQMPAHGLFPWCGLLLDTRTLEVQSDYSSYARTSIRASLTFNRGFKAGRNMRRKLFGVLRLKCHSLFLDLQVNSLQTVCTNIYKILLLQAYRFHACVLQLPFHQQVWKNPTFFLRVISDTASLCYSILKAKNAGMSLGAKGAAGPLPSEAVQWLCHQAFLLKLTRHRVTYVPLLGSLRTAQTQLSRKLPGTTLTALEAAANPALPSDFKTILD

| Compound | GI50 [1] [nM] | GI50 [2] [nM] | GI50 [3] [nM] | GI50 [4] [nM] | GI50 [5] [nM] | GI50 [6] [nM] | GI50 [7] [nM] | GI50 [8] [nM] | GI50 [9] [nM] | GI50 [10] [nM] | GI50 [12] [nM] | GI50 [13] [nM] | GI50 [14] [nM] | GI50 [15] [nM] | GI50 [16] [nM] | GI50 [17] [nM] | GI50 [18] [nM] | GI50 [19] [nM] | GI50 [20] [nM] | GI50 [21] [nM] | also measured |
| --- | --- | --- | --- | --- | --- | --- | --- | --- | --- | --- | --- | --- | --- | --- | --- | --- | --- | --- | --- | --- | --- |
| NCCCN1CCN(CCCNc2nc3ccccc3c3[nH]c4ccccc4c23)CC1 [Compound 6, {3-[4-(3-Aminopropyl)piperazin-1-yl]propyl}(11H-indolo[3,2-c]quinolin-6-yl)amine hydrochloride] | 350 | < 10 | 290 | 240 | 180 | 120 | 230 | 200 | 240 | 180 | 270 | 140 | 120 | ~300 | 370 | 250 | 70 | 200 | 210 | 40 | GI50 [11]: 350 nM; GI50 [22]: 140 nM; GI50 [23]: 420 nM; concentration that completely inhibited telomerase activity [24]: approximately 0.02 nM; GI50 [25]: 310 nM; GI50 [26]: 210 nM; GI50 [27]: 260 nM; GI50 [28]: 300 nM |
| Oc1ccc(CCNc2nc3ccccc3c3[nH]c4ccccc4c23)cc1 [Compound 7a, 6-[2-(4-Hydroxyphenyl)ethylamino]-11H-indolo[3,2-c]quinoline hydrochloride] | 1480 | 1270 | 1590 | 1630 | 1220 | 1450 | 1360 | 1270 | 1600 | 1730 | 1830 | 1420 | 1370 | 1700 | 1600 | 2890 | 1910 | 1330 | 1660 | 1020 | GI50 [11]: 1630 nM; GI50 [22]: 1380 nM; GI50 [23]: 2400 nM; concentration that completely inhibited telomerase activity [24]: approximately 2 nM; GI50 [25]: 1710 nM; GI50 [26]: 1180 nM; GI50 [27]: 1290 nM; GI50 [28]: 1310 nM |
| Cl.Nc1nc2ccccc2c2[nH]c3ccccc3c12 [Compound 7e, 11H-Indolo[3,2-c]quinolin-6-ylamine hydrochloride] | 640 | 1240 | 1050 | 1130 | 500 | 1940 | 1220 | 480 | 1420 | 1540 | 1100 | 510 | 1190 | 1290 | 940 | 1840 | 620 | 1090 | 13500 | 980 | GI50 [22]: 1030 nM; melting point: 377 to 378 °C; GI50 [23]: 1980 nM; GI50 [25]: 1970 nM; GI50 [26]: 1070 nM; GI50 [27]: 1120 nM; GI50 [28]: 410 nM |
| COc1ccc(CCNc2nc3ccccc3c3[nH]c4ccccc4c23)cc1OC [Compound 7c, 6-[2-(3,4-dimethoxyphenyl)ethylamino]-11H-indolo[3,2-c]quinoline hydrochloride] |  |  |  |  |  |  |  |  |  |  |  |  |  |  |  |  |  |  |  |  | concentration that completely inhibited telomerase activity [24]: approximately 2 nM |
